Experimental findings from patent publication US20250101042A1, “KRAS G12D MODULATING COMPOUNDS” (Gilead Sciences, Inc., priority 2023, published 2025) are described below.

The structures appear in SMILES notation.

For assay [1], the target named is GDP-loaded KRAS G12D (Homo sapiens, UniProt P01116, G12D). The assay can be described thus: KRAS G12D (GDP) Biochemical Assay (TR-FRET probe displacement). As to conditions: 0.5 nM enzyme, 2 hours at room temperature. Type of assay: binding. The method, then: Example A. KRAS G12D (GDP) Biochemical Assay
Sequence of GDP-loaded KRAS G12D (P01116 1-188 isoform P01116-2 G12D): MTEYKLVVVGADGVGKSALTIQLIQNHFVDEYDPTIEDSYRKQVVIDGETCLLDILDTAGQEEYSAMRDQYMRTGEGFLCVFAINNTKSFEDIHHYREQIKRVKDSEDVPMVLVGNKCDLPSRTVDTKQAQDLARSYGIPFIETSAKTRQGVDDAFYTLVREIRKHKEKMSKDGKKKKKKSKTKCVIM
Compounds were tested for binding to GDP-loaded KRAS G12D in a 384-well assay format using a TR-FRET probe displacement assay in buffer consisting of 50 mM Hepes (pH 7.4), 150 mM NaCl, 5 mM MgCl2 and 0.005% Tween-20. […] Compounds were serially diluted (1:3) in DMSO. The LabCyte ECHO Acoustic dispenser system was used to pre-spot the assay plates (384-well Non-Binding Surface plates, Corning, Catalog #3824) with 50 nL of compound. The compounds were pre-incubated with 5 μL of 2× final enzyme concentration for 30 minutes before adding 5 μL of 2× final concentration of Eu-streptavidin and TR-FRET probe (10 μL final reaction volume). The plates were incubated at room temperature for 2 hours before measuring TR-FRET ratio on the Envision plate reader. IC50 values were defined as the compound concentration that causes a 50% decrease in TR-FRET ratio and were calculated using a sigmoidal dose-response model to generate curve fits.
(In general: Time-resolved FRET reads energy transfer from a long-lived donor to a nearby acceptor.)

Assay [2] relates to GP2D (KRAS G12D) cells. In words: 2D Cell Viability Assay (CellTiter-Glo). Type of assay: cell-based. The conditions noted are these: GP2d, 96 h, 4 days, CellTiter-Glo luminescence. The protocol:
Example B. 2D Cell Viability Assay
Compounds were tested in a 384-well format for their ability to inhibit the viability of GP2D (KRAS G12D) cells in 2D assays. Compounds were serially diluted (1:3) in DMSO. The LabCyte ECHO Acoustic dispenser system was used to pre-spot assay plates with 200 nL of test molecule per well. 1000 cells/well (40 μL volume per well) in RPMI medium with 10% FBS, and Penicillin-Streptomycin-Glutamine were plated in pre-spotted 384-well plates (Greiner, Catalog #781076) on the BioTEK EL406 liquid dispenser with a 5 μL dispensing cassette (BioTek 7170011). The plates were incubated at 37° C., 5% CO2 for 4 days before addition of CellTiter-Glo (CTG) reagent and measurement of luminescence signal. EC50 values were defined as the compound concentration that causes a 50% decrease in luminescence signal and were calculated using a sigmoidal dose-response model to generate curve fits.
(ATP-based viability assays read luminescence as a measure of living cells.)

By IC50 is commonly meant the point on the concentration scale where inhibition reaches its midpoint. Read a low IC50 as greater potency. One may read the EC50 as the concentration giving half of the maximal effect. The low end stands for higher potency in that assay, the high end for lower potency in that assay. For `Cc1cc(N)nc(-c2nc3c4c(nc(OC[C@@]56CCCN5C[C@H](F)C6)nc4c2F)N2C[C@H]4CC[C@H](N4)[C@H]2C[C@H](C)C3)c1C(F)(F)F` [Example 18, 6-((5S,6aR,7S,10R)-1-fluoro-13-(((2R,7aS)-2-fluorotetrahydro-1H-pyrrolizin-7a(5H)-yl)methoxy)-5-methyl-5,6,6a,7,8,9,10,11-octahydro-4H-3,11a,12,14,15-pentaaza-7,10-methanocyclohepta[4,5]cycloocta[1,2,3-de]naphthalen-2-yl)-4-methyl-5-(trifluoromethyl)pyridin-2-amine], in assay [1], the IC50 stood at 83 nM. In assay [2], this molecule gave an EC50 greater than 100 nM.

For `Cc1cc(N)nc(-c2c(F)c3c4c(nc(OC[C@@]56CCCN5C[C@H](F)C6)nc4c2F)N2C[C@H]4CC[C@H](N4)[C@H]2CC3)c1C(F)(F)F` [Example 19, 6-((1S,4R,14aR)-10,12-difluoro-8-(((2R,7aS)-2-fluorotetrahydro-1H-pyrrolizin-7a(5H)-yl)methoxy)-1,2,3,4,5,13,14,14a-octahydro-1,4-epiminoazepino[1′,2′:1,7]azepino[2,3,4-de]quinazolin-11-yl)-4-methyl-5-(trifluoromethyl)pyridin-2-amine], the IC50 in assay [1] worked out at 0.18 nM. In addition, the EC50 in assay [2] was determined as 3.3 nM.

On to `Nc1nc2c(F)ccc(-c3nc4c5c(nc(OC[C@@]67CCCN6C[C@H](F)C7)nc5c3F)N3C[C@H]5CC[C@H](N5)[C@H]3CC4)c2s1` [Example 20, 4-fluoro-7-((5aR,6S,9R)-1-fluoro-12-(((2R,7aS)-2-fluorotetrahydro-1H-pyrrolizin-7a(5H)-yl)methoxy)-4,5,5a,6,7,8,9,10-octahydro-3,10a,11,13,14-pentaaza-6,9-methanonaphtho[1,8-ab]heptalen-2-yl)benzo[d]thiazol-2-amine], for which the 50% inhibitory concentration (IC50) in assay [1] is 8.2 nM. Also, the EC50 in assay [2] was greater than 100 nM.

Take `C#Cc1c(F)ccc2cc(N)nc(-c3c(Cl)c4c5c(nc(OC[C@@]67CCCN6C[C@H](F)C7)nc5c3F)N3C[C@H]5CC[C@H](N5)[C@H]3CC4)c12` [Example 23, 1-((1S,4R,14aR)-12-chloro-10-fluoro-8-(((2R,7aS)-2-fluorotetrahydro-1H-pyrrolizin-7a(5H)-yl)methoxy)-1,2,3,4,5,13,14,14a-octahydro-1,4-epiminoazepino[1′,2′:1,7]azepino[2,3,4-de]quinazolin-11-yl)-8-ethynyl-7-fluoroisoquinolin-3-amine]: the half-maximal inhibitory concentration (IC50) in assay [1] turned out to be 0.16 nM. For the same molecule, the EC50 in assay [2] stood at 6.1 nM.

In assay [1], `Nc1cc(Cl)c(C(F)F)c(-c2nc3c4c(nc(OC[C@@]56CCCN5C[C@H](F)C6)nc4c2F)N2C[C@H]4CC[C@H](N4)[C@H]2CCC3)n1` [Example 24, 4-chloro-5-(difluoromethyl)-6-((6aR,7S,10R)-1-fluoro-13-(((2R,7aS)-2-fluorotetrahydro-1H-pyrrolizin-7a(5H)-yl)methoxy)-5,6,6a,7,8,9,10,11-octahydro-4H-3,11a,12,14,15-pentaaza-7,10-methanocyclohepta[4,5]cycloocta[1,2,3-de]naphthalen-2-yl)pyridin-2-amine] had a half-maximal inhibitory concentration (IC50) of 11 nM. In assay [2], the EC50 is greater than 100 nM.

As to `N#Cc1c(N)sc2cccc(-c3c(F)c4c5c(nc(OC[C@@]67CCCN6C[C@H](F)C7)nc5c3F)N3C[C@H]5CC[C@H](N5)[C@H]3CC4)c12` [Example 25, 2-amino-4-((1S,4R,14aR)-10,12-difluoro-8-(((2R,7aS)-2-fluorotetrahydro-1H-pyrrolizin-7a(5H)-yl)methoxy)-1,2,3,4,5,13,14,14a-octahydro-1,4-epiminoazepino[1′,2′:1,7]azepino[2,3,4-de]quinazolin-11-yl)benzo[b]thiophene-3-carbonitrile], the IC50 in assay [1] stood at 0.12 nM. Further, the EC50 in assay [2] is 1.6 nM.

In assay [1], `C#Cc1c(F)ccc2cc(N)nc(-c3nc4c5c(nc(OC[C@@]67CCCN6C[C@H](F)C7)nc5c3F)N3C[C@H]5CC[C@H](N5)[C@H]3CCC4)c12` [Example 26, 8-ethynyl-7-fluoro-1-((6aR,7S,10R)-1-fluoro-13-(((2R,7aS)-2-fluorotetrahydro-1H-pyrrolizin-7a(5H)-yl)methoxy)-5,6,6a,7,8,9,10,11-octahydro-4H-3,11a,12,14,15-pentaaza-7,10-methanocyclohepta[4,5]cycloocta[1,2,3-de]naphthalen-2-yl)isoquinolin-3-amine] returned a concentration for half-maximal inhibition (IC50) of 0.4 nM. The same molecule returned an EC50 in assay [2] of 4.1 nM.

Turning to `C#Cc1c(F)ccc2cc(N)nc(-c3c(F)c4c5c(nc(OC[C@@]67CCCN6C[C@H](F)C7)nc5c3F)N3C[C@H]5CC[C@H](N5)[C@H]3CCC4)c12` [Example 61, (S)-1-((1S,4R,15aR)-10,12-difluoro-8-(((2R,7aS)-2-fluorotetrahydro-1H-pyrrolizin-7a(5H)-yl)methoxy)-2,3,4,5,13,14,15,15a-octahydro-1H-1,4-epiminoazepino[1′,2′:1,8]azocino[2,3,4-de]quinazolin-11-yl)-8-ethynyl-7-fluoroisoquinolin-3-amine], in assay [1], the IC50 came to 0.02 nM. In addition, the EC50 in assay [2] was 0.88 nM.
